Experimental data reported in US11198704B2, “Butane-tetraol-based amphiphiles and uses thereof” (Industry-University Cooperation Foundation Hanyang …, priority 2016, dated 2021).

How the values were obtained:
[1] = target: T1, melibiose permease (MelB) (Salmonella typhimurium, UniProt P30878); experiment: MelB extraction and thermostability, SDS-PAGE and Western Blotting of the dissolved protein; conditions: 90 minutes, detergent 1.5% by weight
T1 construct: made in house; host or cells: E. coli DW2
T1 sequence (P30878 whole entry): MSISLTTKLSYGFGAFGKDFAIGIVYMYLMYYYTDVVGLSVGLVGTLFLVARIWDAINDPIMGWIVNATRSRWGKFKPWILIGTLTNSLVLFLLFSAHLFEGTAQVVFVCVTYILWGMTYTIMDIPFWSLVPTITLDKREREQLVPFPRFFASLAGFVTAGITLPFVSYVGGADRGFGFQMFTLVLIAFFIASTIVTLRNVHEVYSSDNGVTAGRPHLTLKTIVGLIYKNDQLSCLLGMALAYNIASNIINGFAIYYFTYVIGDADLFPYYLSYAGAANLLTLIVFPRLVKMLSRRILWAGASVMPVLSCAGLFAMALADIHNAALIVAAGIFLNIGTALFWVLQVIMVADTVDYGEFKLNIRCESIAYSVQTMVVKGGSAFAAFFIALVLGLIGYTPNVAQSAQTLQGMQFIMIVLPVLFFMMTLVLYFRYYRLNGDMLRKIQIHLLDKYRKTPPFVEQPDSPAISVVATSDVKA
Description: The MelB protein was extracted from a membrane using BTM-C11s or DDM, and the amount and structure of the extracted protein were analyzed through SDS-PAGE and Western Blotting. A concentration of the amphiphilic compound used was 1.5% by weight, and the protein was extracted at four temperatures (0, 45, 55, and 65° C.), and incubated at the same temperature for 90 minutes. Thereafter, an amount of the protein remaining dissolved in an aqueous solution was measured to evaluate two types of performance: protein extraction efficiency and stabilization ability of the compound. The amount of the protein extracted and stabilized with each of the amphiphilic molecules is expressed as a relative value (%) of the entire amount of proteins contained in a membrane sample which is not treated with the amphiphilic molecules.
Specifically, Salmonella typhimurium melibiose permease (MelBSt) having a 10-His tag at the C-terminus thereof was expressed in E. coli DW2 cells (AmelB and AlacZY) using a plasmid pK95ΔAHB/WT MelBSt/CH10. Cell growth and membrane preparation were performed according to the method disclosed in the article by A. S. Ethayathulla et al. (Nat. Commun. 2014, 5, 3009). A protein assay was performed using a Micro BCA kit (Thermo Scientific, Rockford, Ill.). An effect of the isomers (A-BTM-C11, B-BTM-C11, and M-BTM-C11) of the BTM-C11s or DDM on the MelBSt stability was evaluated using the protocol disclosed in P. S. Chae et al. (Nat. Methods 2010, 7, 1003-1008). A membrane sample (having a final protein concentration of 10 mg/mL) containing MelBSt was incubated at four temperatures (0, 45, 55, and 65° C.) for 90 minutes in a solubilizing buffer (20 mM sodium phosphate, pH 7.5, 200 mM NaCl, 10% glycerol, and 20 mM melibiose) containing 1.5% (w/v) DDM or the BTM-C11 isomers. To remove insoluble matter, the sample was ultracentrifuged at 355,590 g at 4° C. for 45 minutes using a Beckman Optima™ MAX ultracentrifuge equipped with a TLA-100 rotor. The dissolved fraction was separated by 16% SDS-PAGE, and then immunoblotted with a Penta-His-HRP antibody (Qiagen, Germantown, Md.). The membrane fraction containing 20 μg of untreated proteins was used to represent the entire MelB, and the treated samples were loaded in each well at the same volume. MelBSt was measured by an ImageQuant LAS 4000 Biomolecular imager (GE Health Care Life Sciences) using a SuperSignal West Pico chemiluminescent substrate.

[2] = test system: leucine transporter (LeuT); experiment: Structural stability of LeuT, [3H]-Leu binding by scintillation proximity assay (SPA); type: biochemical, Aquifex aeolicus; conditions: CMC+0.04% or CMC+0.2% by weight; room temperature; 12 days incubation
Description: An experiment for measuring structural stability of a LeuT protein by BTMs in an aqueous solution was performed. Each amphiphilic compound was used at a concentration of (a) CMC+0.04% by weight or (b) CMC+0.2% by weight, and the ligand-binding characteristics of LeuT were determined through a scintillation proximity assay (SPA) using [^3H]-Leu. The measurement was performed at room temperature at regular intervals during an incubation period of 12 days.
Specifically, thermophilic bacteria (Aquifex aeolicus)-derived wild-type leucine transporter (LeuT) were purified using the method as described above (G. Deckert, et al., Nature 1998, 392, 353-358). LeuT was expressed in E. coli C41 (DE3) transformed with pET16b encoding a C-terminal 8×His-tagged transporter (an expression plasmid was provided from Dr. E. Gouaux, Vollum Institute, Portland, Oreg., USA). […] Protein samples were stored at room temperature for 12 days, and centrifuged for a given time, and the characteristics of the proteins were determined by measuring a [^3H]-leucine binding ability using SPA. […] The entire [^3H]-leucine binding affinity to each sample was measured using a MicroBeta liquid scintillation counter (PerkinElmer).

[3] = target: T2, human β2 adrenergic receptor (β2AR) (Homo sapiens, UniProt P07550); experiment: Structural stability of β2AR, [3H]-dihydroalprenolol ([3H]-DHA) binding; type: biochemical; conditions: BTMs without CHS, DDM with CHS
T2 construct: made in house
T2 sequence (P07550 whole entry): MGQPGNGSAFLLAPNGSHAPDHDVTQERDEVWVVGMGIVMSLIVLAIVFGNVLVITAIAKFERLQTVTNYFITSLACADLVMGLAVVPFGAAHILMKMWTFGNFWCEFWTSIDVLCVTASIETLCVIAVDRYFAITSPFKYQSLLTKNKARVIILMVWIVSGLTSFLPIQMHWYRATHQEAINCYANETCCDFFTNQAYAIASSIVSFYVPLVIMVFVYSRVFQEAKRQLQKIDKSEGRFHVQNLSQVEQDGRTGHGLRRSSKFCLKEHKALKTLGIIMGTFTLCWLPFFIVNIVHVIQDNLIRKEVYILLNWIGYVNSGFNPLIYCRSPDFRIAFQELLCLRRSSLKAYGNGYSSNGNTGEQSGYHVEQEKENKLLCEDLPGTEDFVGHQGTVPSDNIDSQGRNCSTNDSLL
Description: An experiment for determining the structural stability of a human β2 adrenergic receptor (β2AR) and a G-protein-coupled receptor (GPCR) by BTMs was performed. That is, a receptor purified with DDM was diluted with a buffer solution containing only each of the BTMs without cholesteryl hemisuccinate (CHS) or a buffer solution containing DDM with CHS. The final compound concentration was CMC+0.2% by weight, and the ligand-binding characteristics of the receptor were determined through [^3H]-dihydroalprenolol ([^3H]-DHA) binding.
Specifically, a radioactive ligand binding test was performed using the following method. β2AR was purified with 0.1% DDM (D. M. Rosenbaum et al., Science, 2007, 318, 1266-1273.), and finally concentrated to approximately 10 mg/mL (approximately 200 μM). A master binding mixture containing 10 nM [^3H]-dihydroalprenolol (DHA) supplemented with 0.5 mg/mL BSA in each 0.2% amphiphilic compound (DDM or BTMs) was prepared using the β2AR purified with DDM. The ligand-binding characteristics of the receptor purified with the amphiphilic compound at 0.2 pmol was monitored at regular intervals while the receptor was incubated at room temperature for 3 days. The ligand-binding characteristics of the receptor were determined using a water-soluble radioactive ligand binding assay as will be described below. The receptor purified with DDM or each of the BTMs was incubated with 10 nM [^3H]-DHA at room temperature for 30 minutes. The mixture was loaded on a G-50 column, and flow-through fractions were collected using 1 mL of a binding buffer (20 mM HEPES (pH 7.5) supplemented with 0.5 mg/mL BSA and 20×CMC of each amphiphilic compound, 100 mM NaCl). Then, the G-50 column was filled with 15 mL of a scintillation fluid. Receptor-bound [^3H]-DHA was counted using a scintillation counter (Beckman). Non-specific binding of [^3H]-DHA was determined by adding 2 μM of alprenolol (Sigma) in the same binding reaction. The binding affinity of [^3H]-DHA was plotted on a column graph, and each experiment was performed in triplicate.

CCCCCCCCCCCCO[C@@H]1O[C@H](CO)[C@@H](O[C@H]2O[C@H](CO)[C@@H](O)[C@H](O)[C@H]2O)[C@H](O)[C@H]1O [DDM, n-dodecyl-β-D-maltopyranoside, reference compound]
MelB protein extraction efficiency / dissolved MelB ([1]; 0° C.): high MelB protein extraction efficiency | amount of MelB protein remaining dissolved in aqueous solution ([1]; 55° C.): approximately 15% | amount of dissolved MelB ([1]; 65° C.): very small amount of the protein remained | maintenance of ligand-binding characteristics of LeuT [2]: continuous structural collapse of the solubilized transporter | initial ligand-binding characteristics of β2AR ([3H]-DHA) ([3]; CMC+0.2% by weight): high ability to bind to a ligand | remaining ligand-binding ability of β2AR, % of initial ([3]; after 3 days of incubation at room temperature): 10%
